Literature values in Sander's compilation of Henry's law constants.

Assay: Henry solubility constant Hcp at 298.15 K (mol/(m3 Pa))
Conditions: cited value
[1] = reference: Burkholder et al. (2015)
[2] = reference: Burkholder et al. (2019)
[3] = reference: Sander et al. (2006)
[4] = reference: Sander et al. (2011)
[5] = reference: Mackay et al. (1995)

| SMILES | Henry solubility constant Hcp (reference: Brockbank (2013)) | also measured |
| --- | --- | --- |
| Nc1ccccc1[N+](=O)[O-] [2-nitrobenzenamine] | 71 | – |
| O=[N+]([O-])c1ccccc1O [2-nitrophenol] | – | Henry solubility constant Hcp (reference: Goldstein (1982)): 0.69 |
| CCCCCCCC(C)O (stereo not given) [2-nonanol] | 0.21 | – |
| CCCCCCCC(C)=O [2-nonanone] | 0.032 | – |
| CCCCCCC(C)O (stereo not given) [2-octanol] | 0.27 | – |
| CCCCCCC(C)=O [2-octanone] | 0.05 | – |
| CC(=O)C(=O)O [2-oxopropanoic acid] | – | Henry solubility constant Hcp [1]: 3100; Henry solubility constant Hcp [2]: 3100; Henry solubility constant Hcp [3]: 3100; Henry solubility constant Hcp [4]: 3100 |
| CCCC(C)O (stereo not given) [2-pentanol] | 0.67 | – |
| CCCC(C)=O [2-pentanone] | 0.13 | Henry solubility constant Hcp [5]: 0.17 |
| OCCc1ccccc1 [2-phenylethanol] | 17 | – |
| CC(C)S [2-propanethiol] | 0.0013 | – |
| CC(C)O [2-propanol] | 1.2 | Henry solubility constant Hcp [1]: 1.2; Henry solubility constant Hcp [2]: 1.2; Henry solubility constant Hcp (reference: Fogg and Sangster (2003)): 1.2; Henry solubility constant Hcp (reference: Hine and Weimar (1965)): 1.7; Henry solubility constant Hcp [3]: 1.3; Henry solubility constant Hcp [4]: 1.3 |
| C=CCO [2-propen-1-ol] | – | Henry solubility constant Hcp (reference: Goldstein (1982)): 4.3; Henry solubility constant Hcp (reference: Pierotti et al. (1959)): 2 |
| C=CC#N [2-propenenitrile] | 0.1 | Henry solubility constant Hcp (reference: Goldstein (1982)): 0.11; Henry solubility constant Hcp [5]: 0.11 |
| CC(=O)OC(C)C [2-propyl ethanoate] | 0.033 | – |
| Nc1ccc(-c2ccc(N)c(Cl)c2)cc1Cl [3,3'-dichloro-(1,1'-biphenyl)-4,4'-diamine] | – | Henry solubility constant Hcp [5]: 12 |
| CC(=O)C(C)(C)C [3,3-dimethyl-2-butanone] | 0.043 | – |
| CCC(C)(C)CC [3,3-dimethylpentane] | 5.6e-06 | – |
| CC1=CC(=O)CC(C)(C)C1 [3,5,5-trimethyl-2-cyclohexen-1-one] | – | Henry solubility constant Hcp (reference: Goldstein (1982)): 1.7 |
| C=CC(C)=O [3-buten-2-one] | – | Henry solubility constant Hcp [1]: 0.4; Henry solubility constant Hcp [2]: 0.4 |
| C=CCC#N [3-butenenitrile] | 0.2 | – |
| CCCCC(O)CC (stereo not given) [3-heptanol] | 0.32 | – |
| CCCCC(=O)CC [3-heptanone] | 0.072 | – |

| SMILES | Henry solubility constant Hcp (reference: Brockbank (2013)) | also measured |
| --- | --- | --- |
| CCCC(O)CC (stereo not given) [3-hexanol] | 0.37 | – |
| CCCC(=O)CC [3-hexanone] | 0.079 | – |
| CC(C)CCO [3-methyl-1-butanol] | 0.82 | – |
| CC(C)C(C)O (stereo not given) [3-methyl-2-butanol] | 0.51 | – |
| CC(=O)C(C)C [3-methyl-2-butanone] | 0.11 | – |
| Cc1cccc(C=O)c1 [3-methylbenzaldehyde] | 0.35 | – |
| Cc1cccc(N)c1 [3-methylbenzenamine] | 5.6 | – |
| CCCC(=O)OCCC(C)C [3-methylbutyl butanoate] | 0.011 | – |
| CC(=O)OCCC(C)C [3-methylbutyl ethanoate] | 0.021 | Henry solubility constant Hcp (reference: Goldstein (1982)): 0.024; Henry solubility constant Hcp (reference: Meynier et al. (2003)): 0.017 |
| CCCCC(C)CC (stereo not given) [3-methylheptane] | 2.6e-06 | – |
| CCCC(C)CC (stereo not given) [3-methylhexane] | 3.2e-06 | – |
| CCC(C)CC [3-methylpentane] | 5.9e-06 | – |
| Cc1cccnc1 [3-methylpyridine] | 1.2 | – |
| O=[N+]([O-])c1cccc(O)c1 [3-nitrophenol] | – | Henry solubility constant Hcp (reference: Gaffney and Senum (1984)): 4900 |
| Cc1cccc([N+](=O)[O-])c1 [3-nitrotoluene] | 0.27 | Henry solubility constant Hcp (reference: Goldstein (1982)): 0.14 |
| CCCCCCC(=O)CC [3-nonanone] | 0.051 | – |
| CCC(O)CC [3-pentanol] | 0.6 | – |
| CCC(=O)CC [3-pentanone] | 0.089 | Henry solubility constant Hcp (reference: Cabani et al. (1981)): 0.13; Henry solubility constant Hcp (reference: Howard (1993)): 0.11 |
| Brc1ccc(Oc2ccc(Br)cc2)cc1 [4,4'-dibromodiphenyl ether] | – | Henry solubility constant Hcp (reference: Wania and Dugani (2003)): 0.24 |
| Clc1ccc(-c2ccc(Cl)cc2)cc1 [4,4'-dichlorobiphenyl] | – | Henry solubility constant Hcp (reference: Murphy et al. (1983b)): 0.033 |
| O=[N+]([O-])c1ccc(Cl)cc1 [4-chloronitrobenzene] | 0.64 | – |
| CCCC(=O)CCC [4-heptanone] | 0.051 | – |
| CC(C)CC(C)O (stereo not given) [4-methyl-2-pentanol] | 0.22 | – |
